Assay results: patent publication US4847295A, “Cycloalkyl-substituted 4-aminophenyl halo derivatives and process for their preparation” (Farmitalia Carlo Erba S.r.l., priority 1987, dated 1989)

Assays:
aromatase = conditions: reported in literature; cited from earlier work
[1] = molecular target: T1, human placental aromatase (Homo sapiens, UniProt P11511); experiment: Inhibition of human placental aromatase in vitro (3H2O release from labelled androstenedione, microsomal fraction); type: biochemical; conditions: for Relative potency: versus aminoglutethimide (1 by definition)
T1 construct: isolated from the microsomal fraction of human placental tissue; from tissue; host or cells: human placenta, microsomal fraction
T1 sequence (P11511 1-503): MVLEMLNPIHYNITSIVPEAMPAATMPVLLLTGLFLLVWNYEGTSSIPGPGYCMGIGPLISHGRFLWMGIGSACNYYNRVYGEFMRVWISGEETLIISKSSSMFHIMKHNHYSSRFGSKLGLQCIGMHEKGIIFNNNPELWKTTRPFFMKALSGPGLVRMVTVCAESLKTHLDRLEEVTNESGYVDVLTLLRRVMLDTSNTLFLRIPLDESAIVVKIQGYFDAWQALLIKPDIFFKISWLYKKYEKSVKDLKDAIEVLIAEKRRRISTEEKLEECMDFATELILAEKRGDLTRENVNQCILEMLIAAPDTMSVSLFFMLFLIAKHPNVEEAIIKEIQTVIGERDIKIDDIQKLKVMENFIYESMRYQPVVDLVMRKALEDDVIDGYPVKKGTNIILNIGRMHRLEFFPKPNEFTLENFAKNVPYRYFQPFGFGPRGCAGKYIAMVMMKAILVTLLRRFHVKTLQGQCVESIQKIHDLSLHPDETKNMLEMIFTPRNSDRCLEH
Protocol: The assay of the aromatase inhibition in vitro was carried out as follows: the enzyme system was isolated from the microsomal fraction of human placental tissue according to standard procedure.
All incubations were carried out in a shaking water bath at 37° C. in air in 10 mM potassium phosphate buffer, pH 7.5, which contained 100 mM Kcl, 1 mM EDTA and 1 mM dithiothreitol. The experiments were carried out in 1 ml incubation volume containing 50 nM 4-[^3 H]androstenedione, various concentrations of the inhibitors. 100 μm NADPH and 0.05 mg of microsomal proteins. After 15 minutes of incubation the reaction was stopped by the addition of chloroform (5 ml).
After centrifugation at 1500 xg for 5 minutes, aliquots (0.5 ml) were removed from the water phase for determination of ^3 H2 O formed.

IC50 ([1]; human placental microsomes, 50 nM 4-[3H]androstenedione, 100 μm NADPH, pH 7.5, 37° C., 15 min) [µM] | Relative potency [1] | SMILES | aromatase-inhibiting action (in words) (aromatase)
 |  | CCC1(c2ccncc2)CCC(=O)NC1=O (centres unmarked) [4-pyridyl-3-ethyl-2,6-piperidinedione] | more or less selective aromatase-inhibiting action
0.33 | 6.4 | Nc1ccc(C(C(=O)NC2CCCCC2)C(F)(F)F)cc1 (racemic) [FCE 25331, N-cyclohexyl-2-(4'-aminophenyl)-3,3,3-trifluoropropanamide] | 
 | 1.7 | Nc1ccc(C2CCCCC2)cc1 [4-cyclohexylaniline] | more or less selective aromatase-inhibiting action
